# Assay: solubility
# Format: physicochemical
# Conditions: for solubility in the stoichiometric amount of N/10 hydrochloric acid: N/10 hydrochloric acid solution
smiles,measurement,setting,value
"FC(F)(F)C(NC1=NCCN1)c1ccccc1 (racemic) [I, 2(α-phenyl trifluoroethylamino) imidazoline]",solubility in the stoichiometric amount of N/10 hydrochloric acid,stoichiometric amount,soluble
"FC(F)(F)C(NC1=NCCO1)c1ccco1 (racemic) [X, dl 2-[α-trifluoromethyl (furyl-2)methylamino] oxazoline]",solubility in the stoichiometric amount of dilute hydrochloric acid,"stoichiometric amount, dilute hydrochloric acid",soluble
"Cn1cccc1C(NC1=NCCO1)C(F)(F)F (racemic) [XIV, dl α-trifluoromethyl 2-[(N-methylpyrrolyl-2)methylamino] oxazoline]",solubility in a N/10 aqueous solution of hydrochloric acid,N/10 aqueous hydrochloric acid,soluble
"Cc1ccccc1C(NC1=NCCO1)C(F)(F)F (racemic) [XIX, dl 2-[(2-methylphenyl) ααα-trifluoroethyl]amino oxazoline]",solubility in the aqueous solution of mineral acids,aqueous mineral acids,soluble
same,solubility in the usual organic solvents,usual organic solvents,soluble
"CN(C1=NCCO1)C(c1ccccc1)C(F)(F)F (racemic) [XV, dl α-trifluoromethyl 2-(N-methylbenzylamino) oxazoline]",solubility in an aqueous solution of hydrochloric acid,aqueous hydrochloric acid,soluble
same,solubility in the most of the organic solvents,most organic solvents,soluble
"FC(F)(F)C(NC1=NCCO1)c1ccc[nH]1 (racemic) [XVI, dl α-trifluoromethyl 2-[(pyrrolyl-2)methylamino] oxazoline]",solubility in the stoichiometric amount of N/10 hydrochloric acid,stoichiometric amount,soluble
"FC(F)(F)C(NC1=NCCO1)c1ccccc1 (single isomer, unassigned) [XII, levorotatory 2-[α-trifluoromethylbenzylamino] oxazoline]",solubility in dilute hydrochloric acid,dilute hydrochloric acid,solbuble

# — patent US4315020A, “Oxazoline (trifluoroethyl) amine” (Science Union et Cie, priority 1976, dated 1982)
